Experimental data from patent publication US20250296953A1, “3,4-THIAZOLO-STEROIDS AND METHODS OF MAKING AND USING THE SAME” (Arkansas State University - Jonesboro, priority 2018, published 2025).
Like-named read-outs stand apart in the source and are kept apart here.

Legend:
[1] = test system: 60 different human tumor cell lines; settings: five dose; for CC50: read-out: LC50
glioblastoma (SF-295) = test: NCI 60 five dose screen; settings: SF-295 (CNS Cancer), five dose

(1S,2R,13R,14S,18S)-7-(2,4-dimethylanilino)-2,18-dimethyl-6-thia-8-azapentacyclo[11.7.0.02,10.05,9.014,18]icosa-5(9),7,10-trien-17-one [IIa.14]
TGI ([1]; RXF 393 (Renal Cancer)): 3.23E−6
GI50 ([1]; SF-268 (CNS Cancer)): 2.77 µM
GI50 ([1]; SK-MEL-2 (Melanoma)): 2.19 µM
TGI ([1]; SK-MEL-2 (Melanoma)): 4.74E−6
GI50 ([1]; SK-MEL-5 (Melanoma)): 1.86 µM
TGI ([1]; SK-MEL-5 (Melanoma)): 3.73E−6
GI50 ([1]; SK-MEL-28 (Melanoma)): 2.31 µM
TGI ([1]; SK-MEL-28 (Melanoma)): 6.08E−6
GI50 ([1]; SK-OV-3 (Ovarian Cancer)): 9.85 µM
TGI ([1]; SK-OV-3 (Ovarian Cancer)): >1.00E−4
GI50 ([1]; SN12C (Renal Cancer)): 2.17 µM
TGI ([1]; SN12C (Renal Cancer)): 5.06E−6
GI50 ([1]; SNB-19 (CNS Cancer)): 2.12 µM
TGI ([1]; SNB-19 (CNS Cancer)): 5.09E−6
GI50 ([1]; SNB-75 (CNS Cancer)): 2.19 µM
TGI ([1]; SNB-75 (CNS Cancer)): 9.75E−5
GI50 ([1]; SW-620 (Colon Cancer)): 2.7 µM
GI50 ([1]; T-47D (Breast Cancer)): 2.89 µM
TGI ([1]; T-47D (Breast Cancer)): >1.00E−4
GI50 ([1]; TK-10 (Renal Cancer)): 2.46 µM
TGI ([1]; TK-10 (Renal Cancer)): 6.70E−6
TGI ([1]; U251 (CNS Cancer)): 3.21E−6
GI50 ([1]; UACC-62 (Melanoma)): 1.72 µM
TGI ([1]; UACC-62 (Melanoma)): 3.94E−6
GI50 ([1]; UACC-257 (Melanoma)): 3.7 µM
TGI ([1]; UACC-257 (Melanoma)): >1.00E−4
GI50 ([1]; UO-31 (Renal Cancer)): 1.34 µM
TGI ([1]; UO-31 (Renal Cancer)): 2.86E−6
CC50 ([1]; 786-0 (Renal Cancer)): 5.84 µM
CC50 ([1]; A498 (Renal Cancer)): > 100 µM
CC50 ([1]; A549/ATCC (Non-small Cell Lung Cancer)): > 100 µM
CC50 ([1]; BT-549 (Breast Cancer)): 5.8 µM
CC50 ([1]; CAKI-1 (Renal Cancer)): > 100 µM
CC50 ([1]; CCRF-CEM (Leukemia)): > 100 µM
CC50 ([1]; COLO 205 (Colon Cancer)): > 100 µM
CC50 ([1]; DU-145 (Prostate Cancer)): > 100 µM
CC50 ([1]; EKVX (Non-small Cell Lung Cancer)): > 100 µM
CC50 ([1]; HCT-15 (Colon Cancer)): > 100 µM
CC50 ([1]; HCT-116 (Colon Cancer)): 5.46 µM
CC50 ([1]; HL-60(TB) (Leukemia)): > 100 µM
CC50 ([1]; HOP-62 (Non-small Cell Lung Cancer)): > 100 µM
CC50 ([1]; HOP-92 (Non-small Cell Lung Cancer)): 8.68 µM
CC50 ([1]; HT29 (Colon Cancer)): > 100 µM
CC50 ([1]; IGROV1 (Ovarian Cancer)): > 100 µM
CC50 ([1]; K-562 (Leukemia)): > 100 µM
CC50 ([1]; KM12 (Colon Cancer)): ≥ 100 µM
CC50 ([1]; LOX IMVI (Melanoma)): 5.96 µM
CC50 ([1]; MALME-3M (Melanoma)): > 100 µM
CC50 ([1]; MCF7 (Breast Cancer)): > 100 µM
CC50 ([1]; MDA-MB-231/ATCC (Breast Cancer)): > 100 µM
CC50 ([1]; MDA-MB-435 (Melanoma)): > 100 µM
CC50 ([1]; MDA-MB-468 (Breast Cancer)): 8.01 µM
CC50 ([1]; MOLT-4 (Leukemia)): > 100 µM
CC50 ([1]; NCI-H23 (Non-small Cell Lung Cancer)): > 100 µM
CC50 ([1]; NCI-H226 (Non-small Cell Lung Cancer)): > 100 µM
CC50 ([1]; NCI-H460 (Non-small Cell Lung Cancer)): > 100 µM
CC50 ([1]; NCI-H522 (Non-small Cell Lung Cancer)): 6.43 µM
CC50 ([1]; NCI/ADR-RES (Ovarian Cancer)): > 100 µM
CC50 ([1]; OVCAR-3 (Ovarian Cancer)): 38.2 µM
CC50 ([1]; OVCAR-4 (Ovarian Cancer)): > 100 µM
CC50 ([1]; OVCAR-5 (Ovarian Cancer)): > 100 µM
CC50 ([1]; OVCAR-8 (Ovarian Cancer)): > 100 µM
CC50 ([1]; RXF 393 (Renal Cancer)): 6.01 µM
CC50 ([1]; SF-268 (CNS Cancer)): > 100 µM
CC50 ([1]; SK-MEL-2 (Melanoma)): 22.7 µM
CC50 ([1]; SK-MEL-5 (Melanoma)): 7.47 µM
CC50 ([1]; SK-MEL-28 (Melanoma)): > 100 µM
CC50 ([1]; SK-OV-3 (Ovarian Cancer)): > 100 µM
CC50 ([1]; SN12C (Renal Cancer)): > 100 µM
CC50 ([1]; SNB-19 (CNS Cancer)): > 100 µM
CC50 ([1]; SNB-75 (CNS Cancer)): > 100 µM
CC50 ([1]; SW-620 (Colon Cancer)): > 100 µM
CC50 ([1]; T-47D (Breast Cancer)): > 100 µM
CC50 ([1]; TK-10 (Renal Cancer)): > 100 µM
CC50 ([1]; U251 (CNS Cancer)): 6.1 µM
CC50 ([1]; UACC-62 (Melanoma)): 9.02 µM
CC50 ([1]; UACC-257 (Melanoma)): > 100 µM
CC50 ([1]; UO-31 (Renal Cancer)): 6.12 µM
GI50 (glioblastoma (SF-295)): 1.81 µM
TGI (glioblastoma (SF-295)): 4.10E−6
